{
  "source": "ChEMBL document CHEMBL4732126",
  "about": "“Design, synthesis, and biodistribution studies of new analogues of marine alkaloids: Potent in vitro and in vivo fungicidal agents against Candida spp” (Eur J Med Chem, 2021)",
  "key": {"[1]": {"test_system": "Candida albicans", "assay": "Antifungal activity against Candida albicans isolate 5 assessed as reduction in fungal growth incubated for 48 hrs by broth microdilution method", "type": "functional"}, "[2]": {"test_system": "Candida albicans", "assay": "Fungicidal activity against Candida albicans isolate 4 assessed as fungal killing incubated for 48 hrs followed by plating on SD agar plate", "type": "functional", "settings": "read-out: MFC99.9"}, "[3]": {"assay": "Toxicity in Swiss mouse infected with Candida albicans ATCC 10231 assessed as effect on heart weight at 10 mg/kg, ip administered at 2, 24 and 48 hrs post-infection and measured at 24 hrs after last dose", "type": "organism-based", "settings": "in vivo, 72 h"}, "[4]": {"test_system": "Candida albicans", "assay": "In vivo antifungal activity in Swiss mouse infected with Candida albicans ATCC 10231 assessed as reduction in fungal load in spleen at 1 mg/kg, ip administered at 2, 24 and 48 hrs post-infection and measured per gm of organ at 24 hrs post-last dose (reference value: 2.34)", "type": "functional", "settings": "time 72 hrs"}, "[5]": {"test_system": "Candida tropicalis", "assay": "Antifungal activity against Candida tropicalis ATCC 28707 assessed as reduction in fungal growth incubated for 48 hrs in presence of sorbitol by broth microdilution method", "type": "functional"}, "[6]": {"test_system": "Candida albicans", "assay": "Fungicidal activity against Candida albicans isolate 13 assessed as fungal killing incubated for 48 hrs followed by plating on SD agar plate", "type": "functional", "settings": "read-out: MFC99.9"}, "[7]": {"assay": "Toxicity in Swiss mouse assessed as relative kidney weight at 1 mg/kg, ip measured after 24 hrs (reference value: 14.91 +/- 0.99 g)", "type": "organism-based", "settings": "in vivo"}, "[8]": {"assay": "Toxicity in Swiss mouse assessed as relative spleen weight at 10 mg/kg, ip measured after 24 hrs (reference value: 4.02 +/- 0.59 g)", "type": "organism-based", "settings": "in vivo"}, "[9]": {"assay": "Toxicity in Swiss mouse assessed as effect on heart at 0.5 to 10 mg/kg, ip measured after 24 hrs by macroscopic analysis", "type": "organism-based", "settings": "in vivo, dose 0.5-10 mg/kg"}, "[10]": {"test_system": "Candida tropicalis", "assay": "Disruption of cell membrane in Candida tropicalis ATCC 28707 assessed as increase in intracellular leakage at MIC incubated for 24 hrs by UV spectrophotometric analysis", "type": "cell-based"}, "[11]": {"test_system": "Candida albicans", "assay": "Antifungal activity against Candida albicans ATCC 10231 assessed as reduction in fungal growth incubated for 48 hrs in presence of sorbitol by broth microdilution method", "type": "functional"}, "[12]": {"test_system": "Candida albicans", "assay": "Antifungal activity against Candida albicans isolate 9 assessed as reduction in fungal growth incubated for 48 hrs by broth microdilution method", "type": "functional"}, "[13]": {"test_system": "Candida albicans", "assay": "Antibiofilm activity against Candida albicans ATCC 10231 assessed as reduction in mature biofilm at 125 ug/ml incubated for 48 hrs by crystal violet staining based spectrophotometric analysis relative to control", "type": "functional"}, "[14]": {"assay": "Toxicity in Swiss mouse infected with Candida albicans ATCC 10231 assessed as effect on body weight at 0.5 to 1 mg/kg, ip administered at 2, 24 and 48 hrs post-infection and measured at 24 hrs after last dose", "type": "organism-based", "settings": "in vivo, 72 h, dose 0.5-1 mg/kg"}, "[15]": {"test_system": "Pichia kudriavzevii", "assay": "Fungicidal activity against Candida krusei ATCC 34135 assessed as fungal killing incubated for 48 hrs followed by plating on SD agar plate", "type": "functional", "settings": "read-out: MFC99.9"}, "[16]": {"test_system": "Candida albicans", "assay": "Fungicidal activity against Candida albicans isolate 1 assessed as fungal killing incubated for 48 hrs followed by plating on SD agar plate", "type": "functional", "settings": "read-out: MFC99.9"}, "[17]": {"test_system": "Candida albicans", "assay": "Antifungal activity against Candida albicans isolate 3 assessed as reduction in fungal growth incubated for 48 hrs by broth microdilution method", "type": "functional"}, "[18]": {"test_system": "Candida albicans", "assay": "Fungicidal activity against Candida albicans isolate 8 assessed as fungal killing incubated for 48 hrs followed by plating on SD agar plate", "type": "functional", "settings": "read-out: MFC99.9"}, "[19]": {"assay": "Toxicity in Swiss mouse assessed as relative heart weight at 1 mg/kg, ip measured after 24 hrs (reference value: 4.75 +/- 0.60 g)", "type": "organism-based", "settings": "in vivo"}, "[20]": {"test_system": "Candida albicans", "assay": "Antifungal activity against Candida albicans isolate 13 assessed as reduction in fungal growth incubated for 48 hrs by broth microdilution method", "type": "functional"}, "[21]": {"test_system": "Candida albicans", "assay": "Fungicidal activity against Candida albicans isolate 5 assessed as fungal killing incubated for 48 hrs followed by plating on SD agar plate", "type": "functional", "settings": "read-out: MFC99.9"}, "[22]": {"assay": "Toxicity in Swiss mouse assessed as effect on liver at 0.5 to 10 mg/kg, ip measured after 24 hrs by macroscopic analysis", "type": "organism-based", "settings": "in vivo, dose 0.5-10 mg/kg"}, "[23]": {"assay": "Toxicity in Swiss mouse infected with Candida albicans ATCC 10231 assessed as effect on lung weight at 10 mg/kg, ip administered at 2, 24 and 48 hrs post-infection and measured at 24 hrs after last dose", "type": "organism-based", "settings": "in vivo, 72 h"}, "[24]": {"test_system": "Candida tropicalis", "assay": "Antifungal activity against Candida tropicalis ATCC 28707 assessed as reduction in fungal growth incubated for 48 hrs by broth microdilution method", "type": "functional"}, "[25]": {"assay": "Toxicity in Swiss mouse assessed as relative heart weight at 0.5 mg/kg, ip measured after 24 hrs (reference value: 4.75 +/- 0.60 g)", "type": "organism-based", "settings": "in vivo"}, "[26]": {"assay": "Toxicity in Swiss mouse infected with Candida albicans ATCC 10231 assessed as effect on liver weight at 10 mg/kg, ip administered at 2, 24 and 48 hrs post-infection and measured at 24 hrs after last dose", "type": "organism-based", "settings": "in vivo, 72 h"}, "[27]": {"assay": "Toxicity in Swiss mouse assessed as relative spleen weight at 20 mg/kg, ip measured after 24 hrs (reference value: 4.02 +/- 0.59 g)", "type": "organism-based", "settings": "in vivo"}, "[28]": {"assay": "Toxicity in Swiss mouse assessed as relative kidney weight at 20 mg/kg, ip measured after 24 hrs (reference value: 14.91 +/- 0.99 g)", "type": "organism-based", "settings": "in vivo"}, "[29]": {"test_system": "Nakaseomyces glabratus", "assay": "Fungicidal activity against Candida glabrata ATCC 2001 assessed as fungal killing incubated for 48 hrs followed by plating on SD agar plate", "type": "functional", "settings": "read-out: MFC99.9"}, "[30]": {"test_system": "Candida albicans", "assay": "Fungicidal activity against Candida albicans isolate 11 assessed as fungal killing incubated for 48 hrs followed by plating on SD agar plate", "type": "functional", "settings": "read-out: MFC99.9"}, "[31]": {"test_system": "Pichia kudriavzevii", "assay": "Antifungal activity against Candida krusei ATCC 34135 assessed as reduction in fungal growth incubated for 48 hrs in presence of sorbitol by broth microdilution method", "type": "functional"}, "[32]": {"test_system": "Candida albicans", "assay": "Antifungal activity against Candida albicans ATCC 10231 assessed as reduction in fungal growth incubated for 48 hrs by broth microdilution method", "type": "functional"}, "[33]": {"assay": "Toxicity in Swiss mouse assessed as relative spleen weight at 3 mg/kg, ip measured after 24 hrs (reference value: 4.02 +/- 0.59 g)", "type": "organism-based", "settings": "in vivo"}, "[34]": {"test_system": "Candida albicans", "assay": "Fungicidal activity against Candida albicans ATCC 10231 assessed as reduction in fungal load at 15.6 ug/ml incubated for 4 hrs followed by inoculation on SD agar plate for 48 hrs by time-kill assay", "type": "functional", "settings": "dose 15.6 µg/ml; time 52 hrs"}, "[35]": {"test_system": "Candida albicans", "assay": "Antifungal activity against Candida albicans isolate 2 assessed as reduction in fungal growth incubated for 48 hrs by broth microdilution method", "type": "functional"}, "[36]": {"assay": "Toxicity in Swiss mouse assessed as body weight at 0.5 mg/kg, ip measured after 24 hrs (reference value: 36.25 +/- 0.31 g)", "type": "organism-based", "settings": "in vivo"}, "[37]": {"test_system": "Candida albicans", "assay": "In vivo antifungal activity in Swiss mouse infected with Candida albicans ATCC 10231 assessed as reduction in fungal load in kidney at 0.5 mg/kg, ip administered at 2, 24 and 48 hrs post-infection and measured per gm of organ at 24 hrs post-last dose (reference value: 2.47)", "type": "functional", "settings": "time 72 hrs"}, "[38]": {"test_system": "Candida tropicalis", "assay": "Antifungal activity against Candida tropicalis ATCC 28707 assessed as reduction in fungal growth incubated for 48 hrs in presence of ergosterol by broth microdilution method", "type": "functional"}, "[39]": {"test_system": "Candida albicans", "assay": "Fungicidal activity against Candida albicans isolate 7 assessed as fungal killing incubated for 48 hrs followed by plating on SD agar plate", "type": "functional", "settings": "read-out: MFC99.9"}},
  "note": "The source made the active and inactive calls. The calls are words filed in the database; no cut-off is given here.",
  "data": [
    {"smiles": "[Cl-].[N-]=[N+]=NCCCCCCCCCCCCOCCCc1ccc[n+](Cc2ccccc2)c1", "values": [
      {"measurement": "MIC", "setting": "[1]", "result": 7.8, "unit": "µg/mL"},
      {"measurement": "MFC", "setting": "[2]", "result": 1.95, "unit": "µg/mL"},
      {"measurement": "Activity", "setting": "[3]", "result": "Non-Toxic"},
      {"measurement": "Activity", "setting": "[4]", "result": 0, "unit": "log10CFU"},
      {"measurement": "MIC", "setting": "[5]", "result": 7.8, "unit": "µg/mL"},
      {"measurement": "MFC", "setting": "[6]", "result": 7.8, "unit": "µg/mL"},
      {"measurement": "Activity", "setting": "[7]", "result": 13.58, "unit": "g"},
      {"measurement": "Activity", "setting": "[8]", "result": 2.85, "unit": "g"},
      {"measurement": "Activity", "setting": "[9]", "result": "Non-Toxic"},
      {"measurement": "Activity", "setting": "[10]", "result": "Active"},
      {"measurement": "MIC", "setting": "[11]", "result": 7.8, "unit": "µg/mL"},
      {"measurement": "MIC", "setting": "[12]", "result": 15.6, "unit": "µg/mL"},
      {"measurement": "inhibition at 125 µg/mL", "setting": "[13]", "result": 40, "unit": "%"},
      {"measurement": "Activity", "setting": "[14]", "result": "Non-Toxic"},
      {"measurement": "MFC", "setting": "[15]", "result": 7.8, "unit": "µg/mL"},
      {"measurement": "MFC", "setting": "[16]", "result": 7.8, "unit": "µg/mL"},
      {"measurement": "MIC", "setting": "[17]", "result": 7.8, "unit": "µg/mL"},
      {"measurement": "MFC", "setting": "[18]", "result": 7.8, "unit": "µg/mL"},
      {"measurement": "Activity", "setting": "[19]", "result": 5.39, "unit": "g"},
      {"measurement": "MIC", "setting": "[20]", "result": 7.8, "unit": "µg/mL"},
      {"measurement": "MFC", "setting": "[21]", "result": 7.8, "unit": "µg/mL"},
      {"measurement": "Activity", "setting": "[22]", "result": "Non-Toxic"},
      {"measurement": "Activity", "setting": "[23]", "result": "Non-Toxic"},
      {"measurement": "MIC", "setting": "[24]", "result": 7.8, "unit": "µg/mL"},
      {"measurement": "Activity", "setting": "[25]", "result": 5.75, "unit": "g"},
      {"measurement": "Activity", "setting": "[26]", "result": "Non-Toxic"},
      {"measurement": "Activity", "setting": "[27]", "result": 2.93, "unit": "g"},
      {"measurement": "Activity", "setting": "[28]", "result": 15.79, "unit": "g"},
      {"measurement": "MFC", "setting": "[29]", "result": 7.8, "unit": "µg/mL"},
      {"measurement": "MFC", "setting": "[30]", "result": 7.8, "unit": "µg/mL"},
      {"measurement": "MIC", "setting": "[31]", "result": 3.9, "unit": "µg/mL"},
      {"measurement": "MIC", "setting": "[32]", "result": 7.8, "unit": "µg/mL"},
      {"measurement": "Activity", "setting": "[33]", "result": 4.07, "unit": "g"},
      {"measurement": "log(activity)", "setting": "[34]", "result": 2},
      {"measurement": "MIC", "setting": "[35]", "result": 7.8, "unit": "µg/mL"},
      {"measurement": "Activity", "setting": "[36]", "result": 37.37, "unit": "g"},
      {"measurement": "Activity", "setting": "[37]", "result": 0, "unit": "log10CFU"},
      {"measurement": "MIC", "setting": "[38]", "result": 15.6, "unit": "µg/mL"},
      {"measurement": "MFC", "setting": "[39]", "result": 3.9, "unit": "µg/mL"}
    ]}
  ]
}
